Measurements from PubChem BioAssay AID2060513 (Molecular Pharmacology Branch, DTP, NCI, 2025).
“And” between values parts separate entries of the source, which are not always exact repeats. Equal entries are not always repeated.

Test system: 299254-011-R-J1-PDC complex spheroids viability
Experiment: Anticancer human tumor 299254-011-R-J1-PDC patient-derived melanoma cell line growth inhibition [GQUAD]
Details: for viability, T/C: stronger effect = lower value
From the text: DNA G-quadruplex Stabilizer Agents in Combinations in Complex Spheroids
A high-throughput screen of multi-cell type tumor spheroids was designed to identify active combinations of DNA G-quadruplex stabilizer agents and targeted small molecules. Complex spheroids include a stromal component modeled by human endothelial cells (HUVEC) and fibroblasts modeled by human mesenchymal stem cells (MSCs). The concentration ranges selected for each drug and investigational agent were based upon clinically achievable concentrations if the clinical Cmax of the agent was known.
Compounds. The drugs and investigational agents: pidnarulex (CX-5461; NSC782164), APTO-253 (NSC789042), BRACO-19 (NSC847499), peposertib (NSC802822), ceralasertib (NSC780249), elimusertib (NSC800525), camonsertib (NSC841442), AZD-1390 (NSC803789), olaparib (NSC753686), talazoparib (NSC767125), ART-558 (NSC835418), sotorasib (NSC818433), MRTX-1133 (NSC836407), SN-38 (NSC673596), topotecan (NSC609699), etoposide (NSC141540), doxorubicin (NSC123127), gemcitabine (NSC613327), 5-fluorouracil (NSC19893), paclitaxel (NSC125973), vemurafenib (NSC761431), panobinostat (NSC761190), R-306465 (JNJ-16241199; NSC773264), adavosertib (NSC754352), TP-3654 (NSC805149), carboplatin (NSC241240), KSQ-4279 (NSC840948), and staurosporine (NSC755774) were obtained from the National Cancer Institute (NCI) Developmental Therapeutics Program Chemical Repository (34). The FDA-approved anticancer drug set is available from the NCI Developmental Therapeutics Program. […] The stock solutions were prepared in dimethyl sulfoxide (DMSO, Sigma-Aldrich, St. Louis, MO, cat. D2650) at 800-fold the tested concentration and stored at -70 degrees C prior to their use. All drugs and investigational agents were tested over a range starting from a high concentration at or near the clinical Cmax and decreasing in half-log increments. If the clinical Cmax for an agent had not been determined, the highest concentration tested was 10 microM.
2.3 Cell Culture. All cells were maintained in an incubator at 37 degrees C and 5% CO2 with 95% humidity. The PDC lines were cultured according to standard operating procedures established by the NCI PDMR. All PDCs were thawed and cultured in Matrigel-coated flasks prepared with a working solution of 1X Ham's F-12 nutrient mix, without supplementation (Invitrogen, cat. 11765054), 100 U/mL penicillin-streptomycin (Invitrogen, cat. 15140122), and 2.5% Matrigel (Corning Inc., cat. 354248) for the first three passages. The 857933-349-R-J2-PDC line was cultured in 6C/Colon 1B media, which includes advanced DMEM/F-12 (Thermo Fisher Scientific, cat. 12634028), 10 mM HEPES (Thermo Fisher Scientific, cat. 15630080), 1X GlutaMAX supplement (Thermo Fisher Scientific, cat. 35050061), 0.1 mg/mL primocin (InvivoGen, cat. ant-pm-2), 10% defined fetal bovine serum, heat inactivated (HyClone Laboratories Inc., cat. SH30070.03HI), 50% L-WRN conditioned media (ATCC, cat. CRL-3276), 1.25 mM N-Acetyl-L-cysteine (Sigma-Aldrich, cat. A9165), 10 mM nicotinamide (Sigma-Aldrich, cat. N0636), 1X B-27 supplement (Thermo Fisher Scientific, cat. 17504044), 1X N-2 supplement (Thermo Fisher Scientific, cat. 17502048), 10 microM Y-27632 dihydrochloride (Tocris Bioscience, cat. 1254), and 50 ng/mL human EGF recombinant protein (Thermo Fisher Scientific, cat. PHG0311). The 485176-168-R4-J1-PDC line was cultured in Panc media, which includes all 6C/Colon 1B media components plus 100 ng/mL human FGF-10 (Thermo Fisher Scientific, cat. 100-26), 500 nM SB-431542 (Selleckchem, cat. S1067), and gastrin (Tocris, cat. 3006).
[…]

[1] = compound alone, run of 02/26/2024
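Further: spheroids exposed to the agents for seven days before readout.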
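Wherever viability, T/C is given: percent viability relative to DMSO vehicle control wells = 100%.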

Q: For `Cc1[nH]c2ccccc2c1CCNCc1ccc(/C=C/C(=O)NO)cc1` + Cc1cnc(CNC(=O)c2c(=O)c3ccc(N4CCCN(C)CC4)nc3n3c2sc2ccccc23)cn1, which IC50 (curve of first compound, second compound 0.0316 µM) is on record?
A: 139 nM

Q: And the IC50 (curve of first compound, second compound 0.1 µM)?
A: 172 nM

Q: And the IC50 (curve of first compound, second compound 0.316 µM)?
A: 101 nM

Q: And the IC50 (curve of first compound, second compound 1 µM)?
A: 48.4 nM

Q: And the IC50 (curve of first compound, second compound 3.16 µM)?
A: 45.5 nM

Q: What about the IC50 (curve of first compound, second compound 10 µM) of the same compound?
A: < 0.999 nM

Q: And the viability, T/C (second compound 0.0316 µM, first compound 0.000999 µM)?
A: 92.3%

Q: What about the viability, T/C (second compound 0.0316 µM, first compound 0.00316 µM) of the same compound?
A: 84.4%

Q: And the viability, T/C (second compound 0.0316 µM, first compound 0.00999 µM)?
A: 94.6%

Q: What about the viability, T/C (second compound 0.0316 µM, first compound 0.0316 µM) of the same compound?
A: 80.3%

Q: And the viability, T/C (second compound 0.0316 µM, first compound 0.0999 µM)?
A: 65.2%

Q: What about the viability, T/C (second compound 0.0316 µM, first compound 0.316 µM) of the same compound?
A: 14.4%

Q: And the viability, T/C (second compound 0.1 µM, first compound 0.000999 µM)?
A: 92.7%

Q: What about the viability, T/C (second compound 0.1 µM, first compound 0.00316 µM) of the same compound?
A: 106%

Q: What about the viability, T/C (second compound 0.1 µM, first compound 0.00999 µM) of the same compound?
A: 97.1%

Q: What about the viability, T/C (second compound 0.1 µM, first compound 0.0316 µM) of the same compound?
A: 80.7%

Q: What about the viability, T/C (second compound 0.1 µM, first compound 0.0999 µM) of the same compound?
A: 87.6%

Q: What about the viability, T/C (second compound 0.1 µM, first compound 0.316 µM) of the same compound?
A: 10.7%

Q: What about the viability, T/C (second compound 0.316 µM, first compound 0.000999 µM) of the same compound?
A: 107%

Q: What about the viability, T/C (second compound 0.316 µM, first compound 0.00316 µM) of the same compound?
A: 92.4%

Q: And the viability, T/C (second compound 0.316 µM, first compound 0.00999 µM)?
A: 97.3%

Q: And the viability, T/C (second compound 0.316 µM, first compound 0.0316 µM)?
A: 91.3%

Q: And the viability, T/C (second compound 0.316 µM, first compound 0.0999 µM)?
A: 50.4%

Q: And the viability, T/C (second compound 0.316 µM, first compound 0.316 µM)?
A: 10.3%

Q: And the viability, T/C (second compound 1 µM, first compound 0.000999 µM)?
A: 86.5%

Q: What about the viability, T/C (second compound 1 µM, first compound 0.00316 µM) of the same compound?
A: 103%

Q: What about the viability, T/C (second compound 1 µM, first compound 0.00999 µM) of the same compound?
A: 79.7%

Q: What about the viability, T/C (second compound 1 µM, first compound 0.0316 µM) of the same compound?
A: 63.4%

Q: What about the viability, T/C (second compound 1 µM, first compound 0.0999 µM) of the same compound?
A: 28.6%

Q: What about the viability, T/C (second compound 1 µM, first compound 0.316 µM) of the same compound?
A: 4.65%

Q: What about the viability, T/C (second compound 3.16 µM, first compound 0.000999 µM) of the same compound?
A: 82.8%

Q: What about the viability, T/C (second compound 3.16 µM, first compound 0.00316 µM) of the same compound?
A: 77.7%

Q: And the viability, T/C (second compound 3.16 µM, first compound 0.00999 µM)?
A: 68.4%

Q: And the viability, T/C (second compound 3.16 µM, first compound 0.0316 µM)?
A: 63.5%

Q: And the viability, T/C (second compound 3.16 µM, first compound 0.0999 µM)?
A: 28%

Q: And the viability, T/C (second compound 3.16 µM, first compound 0.316 µM)?
A: 0.2%

Q: What about the viability, T/C (second compound 10 µM, first compound 0.000999 µM) of the same compound?
A: 26.3%

Q: And the viability, T/C (second compound 10 µM, first compound 0.00316 µM)?
A: 8.63%

Q: And the viability, T/C (second compound 10 µM, first compound 0.00999 µM)?
A: 0.47%

Q: And the viability, T/C (second compound 10 µM, first compound 0.0316 µM)?
A: 0.44%

Q: What about the viability, T/C (second compound 10 µM, first compound 0.0999 µM) of the same compound?
A: 0.35%

Q: What about the viability, T/C (second compound 10 µM, first compound 0.316 µM) of the same compound?
A: 0.26%

Q: Which results are given for `CN(C)c1ccc(Nc2c3ccc(NC(=O)CCN4CCCC4)cc3nc3cc(NC(=O)CCN4CCCC4)ccc23)cc1`?
A: viability, T/C (compound 0.0316 µM): 95.2% [middle of 12 runs]; viability, T/C (compound 0.316 µM): 95.5% [middle of 12 runs]; viability, T/C (compound 3.16 µM): 106% [middle of 12 runs]; viability, T/C (compound 10 µM): 98.3% [middle of 12 runs]; IC50 [1]: > 10000 nM

Q: For `O=C(NO)c1cnc(N2CCN(S(=O)(=O)c3ccc4ccccc4c3)CC2)nc1`, which viability, T/C (compound 0.0316 µM) is on record?
A: 99.8% and 95.4% and 87.7%

Q: And the viability, T/C (compound 0.1 µM)?
A: 103% and 87.4% and 81.9%

Q: What about the viability, T/C (compound 0.316 µM) of the same compound?
A: 73.4% and 75% and 32.2%

Q: What about the viability, T/C (compound 1 µM) of the same compound?
A: 3.62% and 4.16% and 0.67%

Q: What about the viability, T/C (compound 3.16 µM) of the same compound?
A: 0.32% and 0.22%

Q: And the viability, T/C (compound 10 µM)?
A: 0.34% and 0.21%

Q: What about the IC50 (curve of compound) of the same compound?
A: 465 nM and 475 nM and 210 nM

Q: With `Cc1[nH]c2ccc(F)cc2c1-c1nc2c3cccnc3c3ncccc3c2[nH]1` as the compound, how does the viability, T/C (compound 0.0316 µM) read?
A: 99.1% [middle of 12 runs]

Q: And the viability, T/C (compound 0.316 µM)?
A: 95.6% [middle of 12 runs]

Q: And the IC50 (compound alone, run of 02/20/2024)?
A: > 10000 nM

Q: And the IC50 [1]?
A: > 10000 nM

Q: How did the viability, T/C (compound 0.0316 µM) turn out when `COc1ncnc(C2CC2)c1-c1ncc2cnn(Cc3ccc(-c4nc(C(F)(F)F)cn4C(C)C)cc3)c2n1` was run?
A: 105% and 110% and 90.2%

Q: What about the viability, T/C (compound 0.1 µM) of the same compound?
A: 115% and 110% and 86.3%

Q: What about the viability, T/C (compound 0.316 µM) of the same compound?
A: 95.2% and 96.1% and 84.1%

Q: What about the viability, T/C (compound 1 µM) of the same compound?
A: 102% (2×) and 85%

Q: And the viability, T/C (compound 3.16 µM)?
A: 107% and 93.2% and 89.6%

Q: And the viability, T/C (compound 10 µM)?
A: 82.6% and 87.6% and 91.8%

Q: And the IC50 (curve of compound)?
A: > 10000 nM
